Experiments:
[1] = Illumination stability experiment (HPLC content); type: physicochemical; settings: visible light 5000 ± 500 lx, ultraviolet light 250 μW/cm^2
Description: Test Example 2. Illumination Stability Experiment
• Stability chamber, model: ICH-110L, Memmert, USA; • High performance liquid chromatograph (HPLC), model: 1260, Agilent.
• Detection wavelength: 220 nM, 254 nM • Chromatographic column: Agilent ZORBAX SB-C8 4.6×250 mm, 5 μm • Mobile phase A: water • Mobile phase B: acetonitrile • Flow rate: 1.0 mL/min • Column temperature: 35° C. • Injection volume: 10 μL
• 1. A test compound was weighed out and placed into the stability chamber; • 2. a light source was turned on, with visible light of 5000±500 lx and ultraviolet light of 250 μW/cm^2; • 3. sampling was performed at 0 h, 8 h, 24 h, and 72 h, and the sample was dissolved in an aqueous acetonitrile solution with a volume fraction of 50%; • 4. HPLC was used for detection, and the content was determined by using the area normalization method.

AHR protein = target: T1, AHR protein (Homo sapiens, UniProt P35869); assay: Luciferase reporter gene assay (AHR agonistic activity); type: cell-based; settings: HepG2-Lucia AHR cells, 24 h incubation; read-out: Luciferase-labeled human hepatoma cells (HepG2-Lucia) AHR agonist EC50
T1 construct: Human hepatoma cells HepG2-Lucia expressing AHR and luciferase; host or cells: HepG2-Lucia AHR (human hepatoma)
T1 sequence (P35869 11-848): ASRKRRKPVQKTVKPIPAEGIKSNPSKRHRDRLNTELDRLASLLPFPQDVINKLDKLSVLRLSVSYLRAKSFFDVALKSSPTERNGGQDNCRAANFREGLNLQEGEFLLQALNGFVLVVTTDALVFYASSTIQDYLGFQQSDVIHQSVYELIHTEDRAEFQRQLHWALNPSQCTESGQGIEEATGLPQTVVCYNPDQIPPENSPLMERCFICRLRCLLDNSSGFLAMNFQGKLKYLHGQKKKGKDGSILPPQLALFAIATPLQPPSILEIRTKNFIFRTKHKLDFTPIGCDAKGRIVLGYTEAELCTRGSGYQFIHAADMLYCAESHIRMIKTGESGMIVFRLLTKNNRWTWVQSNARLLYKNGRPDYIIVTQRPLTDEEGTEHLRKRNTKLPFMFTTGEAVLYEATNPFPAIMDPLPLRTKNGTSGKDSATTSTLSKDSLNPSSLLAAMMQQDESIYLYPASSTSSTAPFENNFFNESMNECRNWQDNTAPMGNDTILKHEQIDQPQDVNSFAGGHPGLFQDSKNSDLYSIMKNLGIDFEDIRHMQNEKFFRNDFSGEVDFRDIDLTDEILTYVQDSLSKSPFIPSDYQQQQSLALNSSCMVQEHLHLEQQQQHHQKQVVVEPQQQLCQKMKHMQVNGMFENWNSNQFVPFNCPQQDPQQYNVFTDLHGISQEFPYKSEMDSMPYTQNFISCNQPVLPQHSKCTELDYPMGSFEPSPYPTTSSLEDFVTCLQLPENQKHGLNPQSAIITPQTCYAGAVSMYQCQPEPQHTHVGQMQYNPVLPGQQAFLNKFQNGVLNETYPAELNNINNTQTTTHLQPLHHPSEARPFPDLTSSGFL
Description: Luciferase Reporter Gene Assay
In this test example, a luciferase reporter gene assay was performed to assay the agonistic activity effect of the compounds of the present disclosure on AHR protein.
• Human hepatoma cells HepG2-Lucia expressing AHR and luciferase were purchased from InvivoGen with the catalog number of hpgl-ahr;
• 1. HepG2-Lucia AHR cells were cultured in an EMEM medium containing 10% inactivated fetal bovine serum, 1×NEAA, penicillin-streptomycin, and 100 μg/mL Zeocin (bleomycin). The culture temperature was 37° C. and the concentration of carbon dioxide was 5%. • 2. After the cells were grown to about 80% confluency, the cells were digested, centrifuged, resuspended, and counted. The cells were seeded into a 384-well plate at 40 μL/well. • 3. Different concentrations of the test compounds were added by using ECHO at 40 nL/well. • 4. The 384-well plate to which the compounds were added was incubated in the incubator for 24 h. • 5. The supernatant was collected, a QUANTI-Luc Gold detection reagent was added, and the luminescence signal values were read by using the multifunctional microplate reader.

Molecule | Liquid chromatography content (220 nM, %) ([1]; batch 1, 0 h) [%] | Liquid chromatography content (220 nM, %) ([1]; batch 1, 8 h) [%] | Liquid chromatography content (220 nM, %) ([1]; batch 1, 24 h) [%] | Liquid chromatography content (220 nM, %) ([1]; batch 1, 72 h) [%] | EC50 (AHR protein) [nM] | Liquid chromatography content (220 nM, %) ([1]; batch 2, 0 h) [%] | Liquid chromatography content (220 nM, %) ([1]; batch 2, 8 h) [%] | Liquid chromatography content (220 nM, %) ([1]; batch 2, 24 h) [%] | Liquid chromatography content (220 nM, %) ([1]; batch 2, 72 h) [%]
CC(C)c1c(O)cc(/C=C/c2ccccc2)cc1O [Benvitimod, reference compound] | 99.87 | 85.14 | 74.20 | 69.53 | – | – | – | – | –
CC(C)c1c(O)cc(/C=C/c2ccncc2)c(F)c1O [Compound 18, (E)-4-Fluoro-2-isopropyl-5-[2-(pyridin-4-yl)vinyl]benzene-1,3-diol] | – | – | – | – | 66 | – | – | – | –
CC(C)c1c(O)cc(/C=C/c2ccccc2)c(Cl)c1O [Compound 1, (E)-4-Chloro-2-isopropyl-5-styrylbenzene-1,3-diol] | – | – | – | – | 238 | – | – | – | –
CC(C)c1c(O)cc(/C=C/c2ccc(F)cc2)c(F)c1O [Compound 5, (E)-4-Fluoro-5-(4-fluorostyryl)-2-isopropylbenzene-1,3-diol] | – | – | – | – | 6 | 99.30 | 98.80 | 99.22 | 99.06
CC(C)c1c(O)cc(/C=C/c2ncccc2F)c(F)c1O [Compound 7, (E)-4-Fluoro-5-[2-(3-fluoropyridin-2-yl)vinyl]-2-isopropylbenzene-1,3-diol] | – | – | – | – | 30 | 98.70 | 95.84 | 91.56 | 89.57
CC(C)c1c(O)cc(/C=C/c2ncccc2Cl)c(F)c1O [Compound 8, (E)-5-[2-(3-Chloropyridin-2-yl)vinyl]-4-fluoro-2-isopropylbenzene-1,3-diol] | – | – | – | – | 13 | – | – | – | –
CC(C)c1c(O)cc(/C=C/c2ccc(F)cn2)c(F)c1O [Compound 9, (E)-4-Fluoro-5-[2-(5-fluoropyridin-2-yl)vinyl]-2-isopropylbenzene-1,3-diol] | – | – | – | – | 20 | 99.46 | 98.65 | 97.46 | 92.06
CC(C)c1c(O)cc(/C=C/c2ccccc2)c(Br)c1O [Compound 4, (E)-4-Bromo-2-isopropyl-5-styrylbenzene-1,3-diol] | – | – | – | – | 219 | – | – | – | –
CC(C)c1c(O)cc(/C=C/c2cccc(F)n2)c(F)c1O [Compound 14, (E)-4-Fluoro-5-[2-(6-fluoropyridin-2-yl)vinyl]-2-isopropylbenzene-1,3-diol] | – | – | – | – | 27 | 88.32 | 87.83 | 88.31 | 84.37
CC(C)c1c(O)cc(/C=C/c2ccccc2F)c(F)c1O [Compound 6, (E)-4-Fluoro-5-(2-fluorostyryl)-2-isopropylbenzene-1,3-diol] | – | – | – | – | 10 | 98.31 | 98.37 | 98.27 | 98.68
CC(C)c1c(O)cc(/C=C/c2ccccc2)c(F)c1O [Compound 3, (E)-4-Fluoro-2-isopropyl-5-styrylbenzene-1,3-diol] | 97.25 | 97.33 | 96.06 | 97.71 | 57 | – | – | – | –
Cc1c(/C=C/c2ccccc2)cc(O)c(C(C)C)c1O [Compound 2, (E)-2-Isopropyl-4-methyl-5-styrylbenzene-1,3-diol] | – | – | – | – | 177 | – | – | – | –
CC(C)c1c(O)cc(/C=C/c2cccc(F)n2)cc1O [Comparative Example 1, reference compound] | – | – | – | – | – | 96.99 | 85.98 | 82.13 | 72.30
(E)-4-Fluoro-2-isopropyl-5-[2-(pyridin-2-yl)vinyl]benzene-1,3-diol [Compound 16] | – | – | – | – | – | 97.58 | 97.52 | 96.88 | 96.81

Source: patent US20260091027A1, “STILBENE DERIVATIVES AS WELL AS PREPARATION METHOD THEREFOR AND USE THEREOF” (THEDERMA SHANGHAI CO., LTD., priority 2022, published 2026)
